Assay results: US20180186796A1, “COMPOUNDS AND USES THEREOF” (LEAD DISCOVERY SIENA S.R.L., priority 2014, published 2018)
pKi: −log10 of the molar value. ≈ marks a conversion by molar mass, not a printed value. Like-named read-outs stand apart in the source and are kept apart here.

Key:
PAMPA, BBB permeability = settings: for PAMPA BBB (MR %): Membrane Retention; for Papp at 5 h, 0.5 mM: PAMPA, pH 7.4
Experimental: Donor solution (0.5 mM) was prepared by diluting 1 mM dimethylsulfoxide (DMSO) compound stock solution using phosphate buffer (pH 7.4, 0.025 M). […] Donor solution (150 μL) was added to each well of the filter plate. To each well of the acceptor plate were added 300 μL of solution (50% DMSO in phosphate buffer). All compounds were tested in three different plates on different days. The sandwich was incubated for 5 h at room temperature under gentle shaking. After the incubation time, the plates were separated, and samples were taken from both receiver and donor sides and analyzed using LC with UV detection at 280 nm.
Permeability (Papp) for PAMPA was calculated according to the following equation, obtained from Wohnsland and Faller^27 and Sugano et al.^28 equation with some modification in order to obtain permeability values in cm s^−1,
Drug concentration is estimated by using the peak area integration. Membrane retentions (%) were calculated according to the following equation:
where r is the ratio between drug concentration in the acceptor and equilibrium concentration, D, A, and Eq represented drug concentration in the donor, acceptor and equilibrium solution, respectively.
Donor solution of tested compounds (0.5 mM) was prepared by diluting 1 mM dimethylsulfoxide (DMSO) compound stock solution using phosphate buffer (pH 7.4, 25 mM). […] Donor solution (150 μL) was added to each well of the filter plate. To each well of the acceptor plate were added 300 μL of solution (50% DMSO in phosphate buffer). Compounds was tested in three different plates on different days. The sandwich was incubated for 5 h at room temperature under gentle shaking.
Permeability (Papp) for PAMPA was calculated according to the following equation, obtained from Wohnsland and Faller and Sugano et al.^27, 28.
Drug concentration is estimated by using the peak area integration. Membrane retention (%) was calculated according to the following equation:

Water solubility assay = settings: for H2O Solubility: Table 6; for solubility at 24 h / solubility thermodynamic at 24 h: water, 20 °C, thermodynamic from solid
Experimental: Each solid compound (1 mg) was added to 1 mL of water. […] The suspensions were filtered through a 0.45 μm nylon filter (Acrodisc), and the solubilized compound determined by LC-MS-MS assay. For each compound the determination was performed in triplicate. […] The flow rate was 0.2 mL min-^−1 and injection volume was 5 μL. The instrument operated in positive mode and parameters were: detector 1850 V, drying gas pressure 25.0 psi, desolvation temperature 300.0° C., nebulizing gas 40.0 psi, needle 5000 V and shield 600 V. Nitrogen was used as nebulizer gas and drying gas.
Solid compound (1 mg) was added to 1 mL of water. […] The suspensions were filtered through a 0.45-μm nylon filter (Acrodisc), and the solubilised compound determined by LC-UV-MS assay. The determination was performed in triplicate.
Chromatographic analysis was performed with the method above reported and quantification of compounds was made by comparison with apposite calibration curves realized with standard solutions in methanol.

[1] = PAMPA, intestinal (GI) permeability; settings: for PAMPA GI (MR %): Membrane Retention; for Papp / Papp at 5 h, 0.5 mM: PAMPA; for Papp: Table 6; for Papp at 5 h, 0.5 mM: pH 7.4
[2] = Microsomal stability assay; settings: for Metabolic Stab. %: percentage of unmodified drug, Table 8; for Metabolic Stab.: percentage of unmodified parent drug, human liver microsomes 60 min
Recombinant human Src = target: T1, Recombinant human Src (Homo sapiens, UniProt P12931); assay: Enzymatic assay on isolated Src; format: biochemical; settings: for Ki: mean of at least two experiments, read-out: Enzymatic Data (Ki, μM) c-Src
T1 construct: purchased Upstate (Lake Placid, N.Y.)
Text: Recombinant human Src was purchased from Upstate (Lake Placid, N.Y.).

Recombinant human Abl = target: T2, Recombinant human Abl (Homo sapiens, UniProt P00519); assay: Enzymatic assay on isolated Abl; format: biochemical; settings: mean of at least two experiments
T2 construct: purchased Upstate
Experimental: Recombinant human Abl was purchased from Upstate.
Activity was measured in a filter binding assay using an Abl specific peptide substrate (Abtide, Upstate).

recombinant Fyn = recombinant Fyn (Homo sapiens, UniProt P06241); assay: Enzymatic assay on isolated Fyn kinase
[3] = Enzymatic stability in human plasma; format: in vitro ADME; settings: human, pooled human plasma diluted with phosphate buffer, pH 7.4; 37° C.; read-out: Stability Human Plasma t1/2 (converted)
[4] = Stability tests in phosphate buffer and methanol; format: physicochemical; settings: 20° C., 48 h incubation
[5] = methanol, read-out: Stability MeOH t1/2
[6] = phosphate buffer, pH 7.4, read-out: Stability PBS pH 7.4 t1/2

T1 sequence (P12931 whole entry): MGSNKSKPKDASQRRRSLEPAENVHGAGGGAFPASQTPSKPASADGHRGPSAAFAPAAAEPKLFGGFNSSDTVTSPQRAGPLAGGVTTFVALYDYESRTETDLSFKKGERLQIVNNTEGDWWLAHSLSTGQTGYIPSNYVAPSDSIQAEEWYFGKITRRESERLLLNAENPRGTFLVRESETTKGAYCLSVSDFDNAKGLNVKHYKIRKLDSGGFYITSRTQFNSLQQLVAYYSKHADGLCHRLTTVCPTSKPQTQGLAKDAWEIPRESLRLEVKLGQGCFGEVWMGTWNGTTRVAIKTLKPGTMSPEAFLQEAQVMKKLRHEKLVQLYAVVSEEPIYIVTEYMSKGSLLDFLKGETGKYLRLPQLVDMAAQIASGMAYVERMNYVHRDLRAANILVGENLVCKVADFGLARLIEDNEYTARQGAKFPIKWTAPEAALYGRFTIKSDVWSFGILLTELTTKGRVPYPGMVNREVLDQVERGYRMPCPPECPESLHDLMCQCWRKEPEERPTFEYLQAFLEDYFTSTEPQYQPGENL
T2 sequence (P00519 whole entry): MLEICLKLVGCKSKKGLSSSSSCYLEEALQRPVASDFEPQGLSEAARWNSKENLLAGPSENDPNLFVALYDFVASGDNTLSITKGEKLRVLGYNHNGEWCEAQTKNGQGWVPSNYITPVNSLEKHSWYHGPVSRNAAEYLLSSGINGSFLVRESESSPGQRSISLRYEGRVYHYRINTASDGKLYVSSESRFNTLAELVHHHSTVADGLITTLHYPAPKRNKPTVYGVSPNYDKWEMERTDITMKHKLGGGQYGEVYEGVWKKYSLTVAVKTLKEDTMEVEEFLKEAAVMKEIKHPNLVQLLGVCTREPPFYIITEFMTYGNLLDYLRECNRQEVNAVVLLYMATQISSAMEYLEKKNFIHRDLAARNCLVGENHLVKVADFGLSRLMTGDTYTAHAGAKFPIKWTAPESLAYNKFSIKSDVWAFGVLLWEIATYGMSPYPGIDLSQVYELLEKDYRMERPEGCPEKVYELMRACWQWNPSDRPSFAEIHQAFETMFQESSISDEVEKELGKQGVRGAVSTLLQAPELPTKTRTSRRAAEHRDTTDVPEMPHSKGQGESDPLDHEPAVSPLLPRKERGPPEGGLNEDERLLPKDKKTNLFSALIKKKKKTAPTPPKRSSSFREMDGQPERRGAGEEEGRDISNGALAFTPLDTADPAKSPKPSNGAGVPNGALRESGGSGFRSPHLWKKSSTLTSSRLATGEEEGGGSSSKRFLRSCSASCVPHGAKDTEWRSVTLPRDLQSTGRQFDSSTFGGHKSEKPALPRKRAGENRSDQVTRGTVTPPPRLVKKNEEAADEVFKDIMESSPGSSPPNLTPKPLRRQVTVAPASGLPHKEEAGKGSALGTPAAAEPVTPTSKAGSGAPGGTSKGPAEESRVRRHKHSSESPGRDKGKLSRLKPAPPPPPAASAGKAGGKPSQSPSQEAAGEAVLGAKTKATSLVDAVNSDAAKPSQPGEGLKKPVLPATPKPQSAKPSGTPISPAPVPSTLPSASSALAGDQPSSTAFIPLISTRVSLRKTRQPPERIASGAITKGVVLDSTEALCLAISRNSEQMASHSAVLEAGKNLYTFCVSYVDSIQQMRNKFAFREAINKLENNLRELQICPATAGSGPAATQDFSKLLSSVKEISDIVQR
recombinant Fyn, sequence (P06241 whole entry, looked up): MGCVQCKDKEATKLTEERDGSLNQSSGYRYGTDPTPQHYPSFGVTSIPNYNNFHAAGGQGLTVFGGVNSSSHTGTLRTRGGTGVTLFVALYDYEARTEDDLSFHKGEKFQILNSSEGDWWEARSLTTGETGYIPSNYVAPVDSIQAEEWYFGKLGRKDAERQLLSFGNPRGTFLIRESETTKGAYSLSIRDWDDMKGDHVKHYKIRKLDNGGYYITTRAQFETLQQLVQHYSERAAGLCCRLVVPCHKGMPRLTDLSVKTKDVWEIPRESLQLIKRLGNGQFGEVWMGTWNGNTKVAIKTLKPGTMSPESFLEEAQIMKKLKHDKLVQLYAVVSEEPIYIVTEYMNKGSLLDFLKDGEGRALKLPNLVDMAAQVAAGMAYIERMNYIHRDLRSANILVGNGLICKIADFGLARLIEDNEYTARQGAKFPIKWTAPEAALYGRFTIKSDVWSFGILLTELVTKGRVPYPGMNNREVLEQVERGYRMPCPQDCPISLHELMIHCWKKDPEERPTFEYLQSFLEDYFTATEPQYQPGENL

Clc1ccccc1CNc1ncnc2c1cnn2CC(Cl)c1ccc(Br)cc1 (stereo not shown) [Si221]
PAMPA BBB (PAMPA, BBB permeability; Blood Brain Barrier PAMPA): 13.23 10^−6 cm · sec^−1
PAMPA BBB (MR %) (PAMPA, BBB permeability): (7.3) %
H2O Sol. (Log S) (Water solubility assay; Table 8): (<−8.60) log mol · L^−1
H2O Sol. (Water solubility assay; Table 8, 20° C., 24 h): <0.01 µg/mL
PAMPA GI ([1]; Gastrointestinal PAMPA, Table 8): 8.78 10^−6 cm · sec^−1
PAMPA GI (MR %) [1]: (21.0) %
Metabolic Stab. % [2]: 95.2%

CC(C)Sc1nc(Nc2cccc(O)c2)c2cnn(CC(Cl)c3ccccc3)c2n1 (stereo not shown) [Si323]
pKi (Recombinant human Src; read-out: Ki c-Src): 8.00
H2O Solubility (Water solubility assay): 0.9 µg/mL
Papp [1]: 4.53 10^−6 cm/sec
Ki (Recombinant human Abl): 0.12 µM
Metabolic Stab. [2]: 95%

CCC(C)Sc1nc(NCc2ccccc2)c2cnn(CC(Cl)c3ccccc3)c2n1 (stereo not shown) [Si146, N-benzyl-6-(sec-butylthio)-1-(2-chloro-2-phenylethyl)-1H-pyrazolo[3,4-d]pyrimidin-4-amine]
melting point: 112 to 113 °C

Clc1cccc(Nc2nc(SC3CCCC3)nc3c2cnn3CC(Cl)c2ccccc2)c1 (stereo not shown)
pKi (recombinant Fyn): < 4.00
pKi (Recombinant human Src): < 4.00
Ki (Recombinant human Abl): > 100 µM

CCSc1nc(Nc2cccc(F)c2)c2cnn(CC(C)c3ccccc3)c2n1 (stereo not shown)
Ki (Recombinant human Src): 0.79 µM
Papp [1]: 1.72 10^−6 cm/sec
Metabolic Stab. [2]: 94%

CSc1nc(N(CCc2ccccc2)C(=O)OCCN2CCN(C)CC2)c2cnn(CC(Cl)c3ccccc3)c2n1 (stereo not shown) [proSi35, 2-(4-methylpiperazin-1-yl)ethyl (1-(2-chloro-2-phenylethyl)-6-(methylthio)-1H-pyrazolo[3,4-d]pyrimidin-4-yl)(phenethyl)carbamate]
PAMPA BBB (MR %) (PAMPA, BBB permeability): (88.8) %
Papp at 5 h, 0.5 mM (PAMPA, BBB permeability): 0.01 ×10⁻⁶ cm/s
solubility at 24 h (Water solubility assay): 182 µM (≈ 108 µg/mL)
solubility thermodynamic at 24 h (Water solubility assay): 107 µg/mL (≈ 180 µM)
PAMPA GI (MR %) [1]: (86.1) %
Papp at 5 h, 0.5 mM [1]: 0.85 ×10⁻⁶ cm/s
half-life at 100 μM [3]: 35.3 h
half-life at 500 μM [4, 5]: > 48 h
half-life at 500 μM [4, 6]: > 48 h

CSc1nc(Nc2ccccc2)c2cnn(CCc3ccccc3)c2n1
Ki (Recombinant human Src): 1.46 µM
Papp [1]: 7.60 10^−6 cm/sec
Metabolic Stab. [2]: 90%

CC(=O)c1ccc(-c2nn(CC(C)c3ccccc3)c3ncnc(N)c23)cc1 (stereo not shown) [Si336, 1-{4-[4-Amino-1-(2-phenylpropyl)-1H-pyrazolo[3,4-d]pyrimidin-3-yl]phenyl}ethanone]
melting point: 232 to 235 °C

Fc1ccc(CCn2ncc3c(Nc4cccc(Cl)c4)nc(SCCN4CCOCC4)nc32)cc1 [Si327, N-(3-Chlorophenyl)-1-[2-(4-fluorophenyl)ethyl]-6-[(2-morpholin-1-ylethyl)thio]-1H-pyrazolo[3,4-d]pyrimidin-4-amine]
melting point: 127 to 128 °C
pKi (Recombinant human Src; read-out: Ki c-Src): ~7.00

Fc1ccc(CCn2ncc3c(Nc4cccc(Cl)c4)nc(SCCN4CCOCC4)nc32)cc1 [drawing 171]
Ki (Recombinant human Src): 0.1 µM
Papp at 5 h, 0.5 mM [1]: 2.15 ×10⁻⁶ cm/s
Metabolic Stab. [2]: 97%

Oc1cccc(Nc2nc(SC3CCCC3)nc3c2cnn3CC(Cl)c2ccccc2)c1 (stereo not shown) [Si330]
pKi (Recombinant human Src; read-out: Ki c-Src): 8.15
H2O Solubility (Water solubility assay): 0.6 µg/mL
Papp [1]: 3.91 10^−6 cm/sec
Ki (Recombinant human Abl): 0.15 µM
Metabolic Stab. [2]: 91%

CN1CCN(CCOC(=O)N(Cc2ccccc2)c2ncnc3c2cnn3CC(Cl)c2ccccc2)CC1 (stereo not shown) [proS13, 2-(4-Methylpiperazin-1-yl)ethyl benzyl(1-(2-chloro-2-phenylethyl)-1H-pyrazolo[3,4-d]pyrimidin-4-yl)carbamate]
PAMPA BBB (MR %) (PAMPA, BBB permeability): (45.6) %
Papp at 5 h, 0.5 mM (PAMPA, BBB permeability): 5.01 ×10⁻⁶ cm/s
solubility at 24 h (Water solubility assay): 35.5 µM (≈ 18.9 µg/mL)
solubility thermodynamic at 24 h (Water solubility assay): 18.8 µg/mL (≈ 35.2 µM)
PAMPA GI (MR %) [1]: (40.1) %
Papp at 5 h, 0.5 mM [1]: 6.7 ×10⁻⁶ cm/s
Metabolic Stab. % [2]: 86.4%
half-life at 100 μM [3]: > 48 h
half-life at 500 μM [4, 5]: > 48 h
half-life at 500 μM [4, 6]: > 48 h

CSc1nc(N(C(=O)OCCN2CCN(C)CC2)c2cccc(Cl)c2)c2cnn(CC(Cl)c3ccccc3)c2n1 (stereo not shown) [proSi83, 2-(4-Methylpiperazin-1-yl)ethyl (1-(2-chloro-2-phenylethyl)-6-(methylthio)-1H-pyrazolo[3,4-d]pyrimidin-4-yl)(3-chlorophenyl)carbamate]
PAMPA BBB (MR %) (PAMPA, BBB permeability): (47.0) %
Papp at 5 h, 0.5 mM (PAMPA, BBB permeability): 4.14 ×10⁻⁶ cm/s
solubility at 24 h (Water solubility assay): 7.08 µM (≈ 4.25 µg/mL)
solubility thermodynamic at 24 h (Water solubility assay): 4.22 µg/mL (≈ 7.03 µM)
PAMPA GI (MR %) [1]: (44.7) %
Papp at 5 h, 0.5 mM [1]: 4.95 ×10⁻⁶ cm/s
half-life at 100 μM [3]: 3.28 h
half-life at 500 μM [4, 5]: > 48 h
half-life at 500 μM [4, 6]: > 48 h
